In paper PMC6219668 (Oncotarget, 2018):
Like-named read-outs stand apart in the source and are kept apart here.

System: panel of nearly 500 cancer cell lines
Experiment: Cancer Cell Line Encyclopedia profiling, 3-day CellTiter-Glo
Format: cell-based
Conditions: read-out: IC50

## CC(=O)c1c(C)c2cnc(Nc3ccc(N4CCNCC4)cn3)nc2n(C2CCCC2)c1=O [Palbociblib]
Loximvi (skin)
  IC50: > 8 µM
ls123 (large_intestine)
  IC50: > 8 µM
ls513 (large_intestine)
  IC50: 4.53 µM
lu99 (lung)
  IC50: 2.55 µM
ludlu1 (lung)
  IC50: > 8 µM
m059j (central_nervous_system)
  IC50: > 8 µM
malme3m (skin)
  IC50: > 8 µM
mc116 (haematopoietic_and_lymphoid_tissue)
  IC50: 8 µM
Mcas (ovary)
  IC50: > 8 µM
mcf7 (breast)
  IC50: > 8 µM
mdamb157 (breast)
  IC50: > 8 µM
mdamb175vii (breast)
  IC50: > 8 µM
mdamb415 (breast)
  IC50: 6.74 µM
mdamb436 (breast)
  IC50: > 8 µM
mdamb453 (breast)
  IC50: > 8 µM
mdamb468 (breast)
  IC50: > 8 µM
meg01 (haematopoietic_and_lymphoid_tissue)
  IC50: > 8 µM
Melho (skin)
  IC50: > 8 µM
Messa (soft_tissue)
  IC50: > 8 µM
mfe280 (endometrium)
  IC50: > 8 µM
mg63 (bone)
  IC50: > 8 µM
miapaca2 (pancreas)
  IC50: > 8 µM
Mino (haematopoietic_and_lymphoid_tissue)
  IC50: 1.4 µM
Mj (haematopoietic_and_lymphoid_tissue)
  IC50: 4.62 µM
mkn7 (stomach)
  IC50: > 8 µM
mkn45 (stomach)
  IC50: > 8 µM
mkn74 (stomach)
  IC50: > 8 µM
Moggccm (central_nervous_system)
  IC50: > 8 µM
mpp89 (pleura)
  IC50: > 8 µM
msto211h (pleura)
  IC50: 5.5 µM
ncih23 (lung)
  IC50: > 8 µM
ncih28 (pleura)
  IC50: 6.05 µM
ncih211 (lung)
  IC50: > 8 µM
ncih226 (lung)
  IC50: > 8 µM
ncih322 (lung)
  IC50: > 8 µM
ncih358 (lung)
  IC50: > 8 µM
ncih441 (lung)
  IC50: > 8 µM
ncih520 (lung)
  IC50: > 8 µM
ncih522 (lung)
  IC50: > 8 µM
ncih647 (lung)
  IC50: > 8 µM
ncih650 (lung)
  IC50: > 8 µM
ncih661 (lung)
  IC50: > 8 µM
ncih727 (lung)
  IC50: > 8 µM
ncih747 (large_intestine)
  IC50: > 8 µM
ncih810 (lung)
  IC50: > 8 µM
ncih1048 (lung)
  IC50: > 8 µM
ncih1092 (lung)
  IC50: > 8 µM
ncih1184 (lung)
  IC50: > 8 µM
ncih1341 (lung)
  IC50: > 8 µM
ncih1355 (lung)
  IC50: > 8 µM
ncih1373 (lung)
  IC50: > 8 µM
ncih1563 (lung)
  IC50: > 8 µM
ncih1568 (lung)
  IC50: > 8 µM
ncih1573 (lung)
  IC50: > 8 µM
ncih1581 (lung)
  IC50: > 8 µM
ncih1648 (lung)
  IC50: > 8 µM
ncih1650 (lung)
  IC50: > 8 µM
ncih1651 (lung)
  IC50: > 8 µM
ncih1666 (lung)
  IC50: > 8 µM
ncih1693 (lung)
  IC50: > 8 µM
ncih1694 (lung)
  IC50: > 8 µM
ncih1792 (lung)
  IC50: > 8 µM
ncih1793 (lung)
  IC50: 2.04 µM
ncih1869 (lung)
  IC50: > 8 µM
ncih1915 (lung)
  IC50: > 8 µM
ncih1944 (lung)
  IC50: 4.49 µM
ncih1975 (lung)
  IC50: > 8 µM
ncih2009 (lung)
  IC50: > 8 µM
ncih2023 (lung)
  IC50: > 8 µM
ncih2030 (lung)
  IC50: > 8 µM
ncih2052 (pleura)
  IC50: > 8 µM
ncih2085 (lung)
  IC50: > 8 µM
ncih2087 (lung)
  IC50: > 8 µM
ncih2122 (lung)
  IC50: > 8 µM
ncih2170 (lung)
  IC50: > 8 µM
ncih2172 (lung)
  IC50: > 8 µM
ncih2228 (lung)
  IC50: > 8 µM
ncih2444 (lung)
  IC50: 6.71 µM
ncih2452 (pleura)
  IC50: > 8 µM
ncih3255 (lung)
  IC50: > 8 µM
ncin87 (stomach)
  IC50: > 8 µM
nihovcar3 (ovary)
  IC50: > 8 µM
nugc3 (stomach)
  IC50: > 8 µM
nugc4 (stomach)
  IC50: 1.61 µM
oc314 (ovary)
  IC50: > 8 µM
oc315 (ovary)
  IC50: > 8 µM
oc316 (ovary)
  IC50: > 8 µM
ociaml2 (haematopoietic_and_lymphoid_tissue)
  IC50: 1.53 µM
ocum1 (stomach)
  IC50: > 8 µM
oe21 (oesophagus)
  IC50: 4.75 µM
oe33 (oesophagus)
  IC50: > 8 µM
oncodg1 (ovary)
  IC50: > 8 µM
ons76 (central_nervous_system)
  IC50: > 8 µM
ov90 (ovary)
  IC50: > 8 µM
ovcar4 (ovary)
  IC50: > 8 µM
ovcar8 (ovary)
  IC50: > 8 µM
Ovmana (ovary)
  IC50: > 8 µM
Ovsaho (ovary)
  IC50: > 8 µM
Ovtoko (ovary)
  IC50: > 8 µM
p3hr1 (haematopoietic_and_lymphoid_tissue)
  IC50: 7.56 µM
p31fuj (haematopoietic_and_lymphoid_tissue)
  IC50: > 8 µM
panc0203 (pancreas)
  IC50: > 8 µM
panc0327 (pancreas)
  IC50: > 8 µM
panc0403 (pancreas)
  IC50: > 8 µM
panc1005 (pancreas)
  IC50: > 8 µM
pc3 (prostate)
  IC50: > 8 µM
Pfeiffer (haematopoietic_and_lymphoid_tissue)
  IC50: 6.95 µM
pk1 (pancreas)
  IC50: > 8 µM
pk59 (pancreas)
  IC50: > 8 µM
pk45h (pancreas)
  IC50: > 8 µM
pl45 (pancreas)
  IC50: > 8 µM
plcprf5 (liver)
  IC50: > 8 µM
Raji (haematopoietic_and_lymphoid_tissue)
  IC50: > 8 µM
Rd (soft_tissue)
  IC50: > 8 µM
Reh (haematopoietic_and_lymphoid_tissue)
  IC50: 5.91 µM
rerfgc1b (stomach)
  IC50: > 8 µM
Rerflcai (lung)
  IC50: > 8 µM
Rerflcms (lung)
  IC50: > 8 µM
Rkn (soft_tissue)
  IC50: > 8 µM
Rko (large_intestine)
  IC50: > 8 µM
rl952 (endometrium)
  IC50: > 8 µM
rt4 (urinary_tract)
  IC50: > 8 µM
rt112 (urinary_tract)
  IC50: > 8 µM
rvh421 (skin)
  IC50: > 8 µM
saos2 (bone)
  IC50: > 8 µM
sbc5 (lung)
  IC50: > 8 µM
Scaber (urinary_tract)
  IC50: > 8 µM
scc25 (upper_aerodigestive_tract)
  IC50: > 8 µM
sf126 (central_nervous_system)
  IC50: > 8 µM
sf295 (central_nervous_system)
  IC50: > 8 µM
sf8657 (skin)
  IC50: > 8 µM
sh10tc (stomach)
  IC50: > 8 µM
shp77 (lung)
  IC50: > 8 µM
sjrh30 (soft_tissue)
  IC50: > 8 µM
sjsa1 (bone)
  IC50: > 8 µM
skbr3 (breast)
  IC50: > 8 µM
skco1 (large_intestine)
  IC50: > 8 µM
skes1 (bone)
  IC50: > 8 µM
skhep1 (liver)
  IC50: > 8 µM
sklu1 (lung)
  IC50: > 8 µM
skmel2 (skin)
  IC50: > 8 µM
skmel5 (skin)
  IC50: > 8 µM
skmel24 (skin)
  IC50: > 8 µM
skmel30 (skin)
  IC50: > 8 µM
skmel31 (skin)
  IC50: > 8 µM
skmm2 (haematopoietic_and_lymphoid_tissue)
  IC50: > 8 µM
Sknas (autonomic_ganglia)
  IC50: > 8 µM
sknbe2 (autonomic_ganglia)
  IC50: 4.99 µM
Skndz (autonomic_ganglia)
  IC50: > 8 µM
Sknsh (autonomic_ganglia)
  IC50: > 8 µM
skov3 (ovary)
  IC50: > 8 µM
Sngm (endometrium)
  IC50: > 8 µM
snu1 (stomach)
  IC50: 5.73 µM
snu16 (stomach)
  IC50: > 8 µM
snu182 (liver)
  IC50: > 8 µM
snu423 (liver)
  IC50: > 8 µM
snu449 (liver)
  IC50: > 8 µM
snuc2a (large_intestine)
  IC50: > 8 µM
snuc2b (large_intestine)
  IC50: > 8 µM
su8686 (pancreas)
  IC50: > 8 µM
sudhl8 (haematopoietic_and_lymphoid_tissue)
  IC50: 1.21 µM
sudhl10 (haematopoietic_and_lymphoid_tissue)
  IC50: 3.42 µM
suit2 (pancreas)
  IC50: > 8 µM
supm2 (haematopoietic_and_lymphoid_tissue)
  IC50: 5.92 µM
supt1 (haematopoietic_and_lymphoid_tissue)
  IC50: > 8 µM
sw48 (large_intestine)
  IC50: > 8 µM
sw403 (large_intestine)
  IC50: > 8 µM
sw480 (large_intestine)
  IC50: > 8 µM
sw579 (thyroid)
  IC50: > 8 µM
sw620 (large_intestine)
  IC50: > 8 µM
sw780 (urinary_tract)
  IC50: 1.64 µM
sw900 (lung)
  IC50: > 8 µM
sw1271 (lung)
  IC50: > 8 µM
sw1353 (bone)
  IC50: > 8 µM
sw1417 (large_intestine)
  IC50: > 8 µM
sw1990 (pancreas)
  IC50: > 8 µM
t3m10 (lung)
  IC50: > 8 µM
t24 (urinary_tract)
  IC50: > 8 µM
t84 (large_intestine)
  IC50: > 8 µM
t98g (central_nervous_system)
  IC50: > 8 µM
t47d (breast)
  IC50: > 8 µM
tc71 (bone)
  IC50: > 8 µM
Tccsup (urinary_tract)
  IC50: > 8 µM
te9 (oesophagus)
  IC50: > 8 µM
te617t (soft_tissue)
  IC50: 1.01 µM
Ten (endometrium)
  IC50: > 8 µM
Toledo (haematopoietic_and_lymphoid_tissue)
  IC50: > 8 µM
tov21g (ovary)
  IC50: > 8 µM
tov112d (ovary)
  IC50: > 8 µM
